Test results published in patent US11202766B1, “Pharmaceutical compositions including hydrocodone bitartrate and guaifenesin” (priority 2019, dated 2021).

Experiment: Single-dose crossover oral food effect study (fed vs fasting pharmacokinetics)
Conditions: for Kel of Hydrocodone bitartrate, Mean: oral; for Tmax / half-life: Mean; for half-life: t1/2 of Hydrocodone bitartrate
Procedure: A randomized, open-label, balanced, two-treatment, two-period, two sequence, single-dose, two-way crossover oral food effect study was conducted comparing administration of rapidly dissolving pharmaceutical composition tablets including 5 mg hydrocodone bitartrate and 400 mg guaifenesin per tablet to healthy subjects under fed and fasting conditions. The objective of this study was to evaluate the effect of food (high fat, high calorie breakfast) on the rate and extent of absorption of a single oral dose of the rapidly dissolving pharmaceutical composition including 5 mg hydrocodone bitartrate and 400 mg guaifenesin.
Healthy adult participants were randomized into Treatment A or Treatment B during two study periods (Period 1 and Period 2). Participants received one tablet of the rapidly dissolving pharmaceutical composition (including 5 mg hydrocodone bitartrate and 400 mg guaifenesin per tablet) in each study period with a seven-day (washout) interval between study periods. Participants randomized to Treatment A consumed a high fat, high calorie breakfast (1000 kcal) 30 minutes prior to dosing. Participants randomized to Treatment B fasted overnight and at the time of dosing. Participants were housed at the investigative site not less than 10.5 hours pre-dose until 24 hours post-dose in each period.
Twenty-one blood samples were collected from each subject during each study period. The venous blood samples (9 mL each) were drawn at pre-dose [(0.00) within 1.00 hour prior to dosing] and at 0.16, 0.33, 0.50, 0.66, 0.83, 1.00, 1.25, 1.50, 2.00, 3.00, 4.00, 5.00, 6.00, 7.00, 8.00, 10.00, 12.00, 16.00, 20.00 and 24.00 hours post-dose. After the collection of blood samples from all the subjects at each time point, samples were centrifuged at 4000 RPM for 10 minutes at 5° C. All plasma samples were then transferred into three polypropylene tubes. The plasma samples were stored at −20±10° C. for a maximum period of 12.0 hours.
Pharmacokinetic parameters were measured for fed and fasting conditions of subjects for both hydrocodone bitartrate and guaifenesin. Plasma samples were assayed for hydrocodone and guaifenesin using an API 4000® LC-MS/MS System, commercially available from AB Sciex LP, Concord, Ontario, Canada. During analysis, standard and quality control samples were distributed throughout each batch of study samples analyzed. No access to the randomization schedule was available until all of the analysis was completed. All the values below the limit of quantification (LOQ) were set to “zero” for all pharmacokinetic and statistical calculations. Any missing sample was reported as “M”. Incurred sample reanalysis was performed as per the current version of ICON SOP BC06, “Incurred Sample Reanalysis Procedures”.
The pharmacokinetic parameters for hydrocodone and guaifenesin in plasma were computed using SAS™ v9.3 software, commercially available from SAS Institute, Inc., Cary, N.C., USA.
The plasma pharmacokinetic parameters were determined for Cmax, Tmax, AUC0→t, and AUC0→∞. The Cmax and Tmax values were directly determined from the plasma concentration versus time curves. The AUC0→t was calculated by the linear trapezoidal rule. The AUC0→∞ was estimated by summing the area from AUC0→t and […]. The half life, t1/2, was calculated using the formula t1/2=ln 2/Kel, wherein Kel is the slope of the terminal portion of the plasma concentration versus time curve, obtained by linear regression. Natural Logarithmic transformation was done before data analysis for Cmax, AUC0→t, and AUC0→∞. Tmax, t1/2, and Kel were analyzed without transformation.
A paired t-test was used to assess effects between the two arms of the study. Intra-subject variability in terms of the overall percentage coefficient of variation (% CV) were also evaluated for each PK parameter. […] All values below the limit of quantification (LOQ) were set to “zero” for all pharmacokinetic and statistical calculations.

[1] = fed:fasting, ln-transformed data

SMILES | Kel of Hydrocodone bitartrate, Mean (Fasting Condition (Treatment B), one tablet 5 mg hydrocodone bitartrate/400 mg guaifenesin) [h⁻¹] | Kel of Hydrocodone bitartrate, Mean (Fed Condition (Treatment A), one tablet 5 mg hydrocodone bitartrate/400 mg guaifenesin) [h⁻¹] | Ratio Between Treatment A: Treatment B, Kel of Hydrocodone Bitartrate, Mean (fed:fasting) | Ratio Between Treatment A: Treatment B, Tmax of Hydrocodone Bitartrate, Mean (fed:fasting) | Ratio Between Treatment A: Treatment B, t1/2 of Hydrocodone Bitartrate, Mean (fed:fasting) | Ratio Between Treatment A: Treatment B, *AUC0→t of Hydrocodone Bitartrate, Mean [1] | Ratio Between Treatment A: Treatment B, *AUC0→∞ of Hydrocodone Bitartrate, Mean [1] | Ratio Between Treatment A: Treatment B, *Cmax of Hydrocodone Bitartrate, Mean [1] | Tmax (human, in vivo, po, Tmax of Hydrocodone bitartrate, Fasting Condition (Treatment B), one tablet 5 mg hydrocodone bitartrate/400 mg guaifenesin) [h] | Tmax (human, in vivo, po, Tmax of Hydrocodone bitartrate, Fed Condition (Treatment A), one tablet 5 mg hydrocodone bitartrate/400 mg guaifenesin) [h] | half-life (human, in vivo, po, Fasting Condition (Treatment B), one tablet 5 mg hydrocodone bitartrate/400 mg guaifenesin) [h] | half-life (human, in vivo, po, Fed Condition (Treatment A), one tablet 5 mg hydrocodone bitartrate/400 mg guaifenesin) [h] | t1/2 of Guaifenesin, Mean (human, in vivo, po) [h] | Tmax (human, in vivo, po, Tmax of Guaifenesin) [h]
COc1ccc2c3c1O[C@H]1C(=O)CC[C@H]4[C@@H](C2)N(C)CC[C@]314.O=C(O)C(O)C(O)C(=O)O [Hydrocodone bitartrate, hydrocodone bitartrate] | 0.14 | 0.14 | 0.98 | 1.51 | 1.11 | 1.02 | 1.02 | 1.03 | 1.61 | 2.08 | 4.95 | 5.29 | – | –
COc1ccccc1OCC(O)CO (centres unmarked) [Guaifenesin, guaifenesin] | – | – | – | – | – | – | – | – | – | – | – | – | 1.05 | 0.64
